Where only a bound is given, the exact number is not on record here.

Experiment [1] has as its target T1, human NMB receptor (BB1) (Homo sapiens, UniProt P28336).
T1 construct: expressed in transfected cells
The experiment can be described thus: BB1 binding assay ([125I][Tyr4]bombesin, CHO-K1 cell membranes). As for the experimental part: (§1) In the following experiments, measurement of BB1 and BB2 binding was as follows. […] The final pellet was resuspended in assay buffer to a final cell concentration of 1.5 × 10^5/mL. […] Nonspecific binding was defined by 1µM bombesin. […] Radioactivity bound was determined using a gamma counter.
(§2) All competition data was analysed using nonlinear regression utilizing iterative curve-plotting procedures in Prism® (GraphPad Software Inc., San Diego, USA).

For experiment [2], the target named is T2, human GRP receptor (BB2) (Homo sapiens, UniProt P30550).
T2 construct: expressed in transfected cells
The experiment can be described thus: BB2 binding assay ([125I][Tyr4]bombesin, CHO-K1 cell membranes). The method, then:
as §1, §2

In experiment [3] the test system is Female New Zealand rabbits. The experiment can be described thus: Pelvic nerve-stimulated female genital blood flow, anaesthetised rabbit model of sexual arousal. The class given is in vivo. The method, then: Female New Zealand rabbits (~2.5kg) were pre-medicated with a combination of Medetomidine (Domitor®) 0.5ml/kg i.m., and Ketamine (Vetalar®) 0.25ml/kg i.m. whilst maintaining oxygen intake via a face mask. The rabbits were tracheotomised using a Portex™ uncuffed endotracheal tube 3 ID., connected to ventilator and maintained at a ventilation rate of 30-40 breaths per minute, with an approximate tidal volume of 18-20 ml, and a maximum airway pressure of 10 cm H2O. Anaesthesia was then switched to Isoflurane and ventilation continued with O2 at 21/min. The right marginal ear vein was cannulated using a 23G or 24G catheter, and Lactated Ringer solution perfused at 0.5ml/min. The rabbit was maintained at 3% Isoflurane during invasive surgery, dropping to 2% for maintenance anaesthesia.
The left groin area of the rabbit was shaved and a vertical incision was made approximately 5cm in length along the thigh. The femoral vein and artery were exposed, isolated and then cannulated with a PVC catheter (17G) for the infusion of drugs and compounds. Cannulation was repeated for the femoral artery, inserting the catheter to a depth of 10cm to ensure that the catheter reached the abdominal aorta. This arterial catheter was linked to a Gould system to record blood pressure. Samples for blood gas analysis were also taken via the arterial catheter. Systolic and diastolic pressures were measured, and the mean arterial pressure calculated using the formula (diastolic x2 + systolic) ö3. Heart rate was measured via the pulse oxymeter and Po-ne-mah data acquisition software system (Ponemah Physiology Platform, Gould Instrument Systems Inc). A ventral midline incision was made into the abdominal cavity. The incision was about 5cm in length just above the pubis. The fat and muscle was bluntly dissected away to reveal the hypogastric nerve which runs down the body cavity. It was essential to keep close to the side curve of the pubis wall in order to avoid damaging the femoral vein and artery which lie above the pubis. The sciatic and pelvic nerves lie deeper and were located after further dissection on the dorsal side of the rabbit. Once the sciatic nerve is identified, the pelvic nerve was easily located. The term pelvic nerve is loosely applied; anatomy books on the subject fail to identify the nerves in sufficient detail. However, stimulation of the nerve causes an increase in vaginal and clitoral blood flow, and innervation of the pelvic region. The pelvic nerve was freed away from surrounding tissue and a Harvard bipolar stimulating electrode was placed around the nerve. […] A frequency response curve was determined at the start of each experiment in order to determine the optimum frequency to use as a sub-maximal response, normally 4Hz. […]

Experiment [4] concerns conscious male rat. The experiment can be described thus: Penile intracavernosal pressure in the conscious male rat (telemetry). The class given is in vivo. As for the experimental part:
In addition to treating women with FSD, bombesin antagonists will be useful in treating male erectile dysfunction (MED. Both the non-selective BB1/2 antagonists (Compound 1; 10mg/kg sc) and the selective BB1 receptor antagonist (Compound 3; 15mg/kg sc) is pro-erectile in a conscious rat model of penile erection (Figures 24 and 25). Erectile responses were recorded by measuring intracavernosal pressure using surgically implanted telemetric device. The specific details the surgical procedures, data acquisition and analysis can be found in detail in Bemabe 1999.
Compound 1 and compound 3 were dissolved in 50% β-cyclodextrin in saline. They were administered at a dose of 15mg/kg subcutaneously (sc). […] These increases equate to penile erection. Both Compounds 1 and 3 induced a number of erections in a similar manner to those observed with apomorphine or melanotan-II - both of which are clinically proven agents that are effective in the treatment of MED. Moreover the amplitude of the increases observed were similar to those observed with apomorphine or melanotan-II. The mechanism of action is thought to be similar to the effects on female genital flow ie CNS potentiation of the descending neuronal pathways that control penile erection.

Where [5] appears, read: Table 7, N-terminal sulfonamide derivatives.

T1 sequence (P28336 whole entry): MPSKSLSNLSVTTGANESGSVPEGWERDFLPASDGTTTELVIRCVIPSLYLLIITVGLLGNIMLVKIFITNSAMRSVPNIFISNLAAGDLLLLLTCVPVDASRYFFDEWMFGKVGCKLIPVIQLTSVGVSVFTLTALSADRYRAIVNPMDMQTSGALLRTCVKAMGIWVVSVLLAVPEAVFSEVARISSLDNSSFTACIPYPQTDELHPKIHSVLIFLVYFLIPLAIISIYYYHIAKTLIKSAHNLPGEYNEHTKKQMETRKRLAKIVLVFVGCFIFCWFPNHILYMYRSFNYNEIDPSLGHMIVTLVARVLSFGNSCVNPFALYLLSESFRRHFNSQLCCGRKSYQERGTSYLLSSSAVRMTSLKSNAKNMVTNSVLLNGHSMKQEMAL
T2 sequence (P30550 whole entry): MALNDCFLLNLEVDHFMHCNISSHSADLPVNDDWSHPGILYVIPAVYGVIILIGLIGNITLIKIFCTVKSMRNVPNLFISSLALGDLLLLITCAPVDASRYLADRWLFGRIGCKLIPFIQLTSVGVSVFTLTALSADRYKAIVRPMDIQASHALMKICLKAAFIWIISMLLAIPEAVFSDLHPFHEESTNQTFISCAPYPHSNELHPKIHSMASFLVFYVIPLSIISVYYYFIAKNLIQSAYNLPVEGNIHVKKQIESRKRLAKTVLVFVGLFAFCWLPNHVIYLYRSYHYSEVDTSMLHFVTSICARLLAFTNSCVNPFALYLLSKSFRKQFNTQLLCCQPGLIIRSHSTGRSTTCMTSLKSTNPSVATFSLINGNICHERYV

The compound `Cc1ccc(C(=O)N[C@@](C)(Cc2c[nH]c3ccccc23)C(=O)NCC2(c3ccccn3)CCCCC2)cc1` [Example 33, N-{(S)-2-(1H-Indol-3-yl)-1-methyl-1-[(1-pyridin-2-yl-cyclohexylmethyl)-carbamoyl]-ethyl}-4-methyl-benzamide] returned an IC50 in experiment [1] (Table 3, N-acyl derivatives) of 2500 nM.

On to “(S)-3-(1H-Indol-3-yl)-2-methyl-2-(nitro-trifluoromethyl-benzenesulfonylamino)-N-(1-pyridin-2-yl-cyclohexylmethyl)-propionamide [Example 167]”, for which the IC50 in experiment [2] (setting [5]) is more than 10000 nM; in experiment [1] (setting [5]) it was 758 nM.

For the compound `C[C@@](Cc1c[nH]c2ccccc12)(NC(=O)Nc1ccc([N+](=O)[O-])cc1)C(=O)NCC1(c2ccc(N)cc2)CCCCC1` [Compound 3, (2S)-N-{[1-(4-aminophenyl)cyclohexyl]methyl}-3-(1H-indol-3-yl)-2-methyl-2-{[(4-nitroanilino)-carbonyl]amino}propanamide], the “basal genital blood flow in the absence of PNS” value in experiment [3] (15mg/kg sc) is “no effect”. Moreover, the “pelvic-nerve stimulated (PNS) increases in genital (vaginal and clitoral) blood flow” value in experiment [3] (15mg/kg sc in 50% β-cyclodextrin in saline) was “potent enhancer”. Further, the “erectile response (penile erection)” value in experiment [4] (Compound 1 10mg/kg sc, Compound 3 15mg/kg sc) is on record as “pro-erectile”. In experiment [4] (one hour after 10mg/kg sc Compound 1, 45 minutes after 15mg/kg sc compound 3), the intracavernosal pressure entry is listed as “significant increases in intracavernosal pressure”.

In experiment [1] (Table 3, N-acyl derivatives), `C[C@@](Cc1c[nH]c2ccccc12)(NC(=O)c1ccccc1)C(=O)NCC1(c2ccccn2)CCCCC1` [Example 32, N-{(S)-2-(1H-Indol-3-yl)-1-methyl-1-[(1-pyridin-2-yl-cyclohexylmethyl)-carbamoyl]-ethyl}-benzamide] showed an IC50 of 2500 nM.

As for `CN(C)c1cccc(C(=O)N[C@@](C)(Cc2c[nH]c3ccccc23)C(=O)NCC2(c3ccccn3)CCCCC2)c1` [Example 42, Dimethylamino-N-{(S)-2-(1H-indol-3-yl)-1-methyl-1-[(1-pyridin-2-yl-cyclohexyl-methyl)-carbamoyl]-ethyl}-benzamide], the IC50 is more than 10000 nM in experiment [2] (Table 3, N-acyl derivatives) and 2520 nM in experiment [1] (Table 3, N-acyl derivatives).

The values are drawn from patent EP1333824B1, “TREATMENT OF SEXUAL DYSFUNCTION WITH BOMBESIN RECEPTOR ANTAGONISTS” (Warner-Lambert Company LLC, priority 2000, dated 2002).
